Marks after values point to notes of the source that are not given here.
Assays:
[1] = test system: BT-474 human cancer cells; test: Antitumor test in nude mouse model implanted with human cancer cells; type: in vivo; conditions: twice each day, for 14 days, nude BALB/c female mouse, BT-474 subcutaneous, tumor volume change vs Gelucire control
Method: 1×10^7 BT-474 human cancer cells were suspended in Matrigel solution, and the suspension was subcutaneously transplanted to a nude BALB/c female mouse (5 weeks old). In order to enhance the take ratio of the tumor, an estrogen preparation was intramuscularly administered to a hind leg at plantation and 7 days after transplantation.
A Gelucire solution (0.3 or 1 mg/ml) of the compound of the present invention was orally administered at a dosage of 10 ml/kg, twice each day, for 14 days. During the first day and the last day that the administration was carried out, the tumor diameter was measured, and the tumor volume was calculated using the formula: tumor volume=major axis x minor axis x minor axis x(1/2). The T/C (%) was calculated as the ratio of the value obtained by subtracting the tumor volume on the last day of administration from the tumor volume on the first day of administration for the control group (to which only Gelucire was administered) and the value obtained by subtracting the tumor volume on the last day of administration from the tumor volume on the first day of administration for the treatment group.

[2] = test system: normal human cell fibroblast MRC-5; test: Cell proliferation suppression test, normal cells MRC-5 (SRB staining); type: cell-based; conditions: MRC5, MRC-5 normal fibroblasts, incubated for 3 or 5 days, SRB protein staining, absorbance 550 nm, read-out: Cell proliferation inhibition (IC50; μM) MRC-5
Method: (§1) 100 μl of a suspension of HER2-expressing SK-BR-3 human breast cancer cells or 100 μl of BT-474 (2,000 cells) or 100 μl (4,000 cells) of a suspension of normal human cell fibroblast MRC-5 was sown in a 96-well microplate and cultured at 37° C. in a 5% carbonic acid gas incubator. On the following day, 100 μl of a solution of the test compound which had previously been diluted 2-fold, was added and the mixture was incubated for 3 or 5 days. The cells were fixed and washed with 5% glutaraldehyde solution and further fixed with 10% trichloroacetic acid solution, after which a 0.4% (W/V) SRB 0.4% (W/V) solution (dissolved in 1% acetic acid) was added to stain the cell protein. After the pigment solution was removed and the plate was washed with 1% acetic acid solution, 100 μl of extract (10 mM tris buffer solution) was added to extract the pigment; absorbance was measured at an absorption wavelength of 550 nm to quantify the amount of cells as protein content.
(§2) Taking the absorbance for the control group, which received no test compound solution, as 100% the ratio of the absorbance for each treatment group was determined, and the compound concentration required to achieve 50% suppression of the residual cell content relative to the control (IC50 value) was calculated.

[3] = test system: HER2-expressing SK-BR-3 human breast cancer cells; test: Cell proliferation suppression test, SK-BR-3 (SRB staining); type: cell-based; conditions: SK-BR-3 cells, incubated for 3 or 5 days, SRB protein staining, absorbance 550 nm, read-out: Cell proliferation inhibition (IC50; μM) SK-BR-3
Method: as §1, §2

[4] = test system: BT-474 human breast cancer cells; test: Cell proliferation suppression test, BT-474 (SRB staining); type: cell-based; conditions: BT-474 cells, incubated for 3 or 5 days, SRB protein staining, absorbance 550 nm, read-out: Cell proliferation inhibition (IC50; μM) BT-474
Method: as §1, §2

IC50 [3] [µM] | IC50 [4] [µM] | SMILES | T/C(%) 3 mg/kg ([1]; 3 mg/kg orally) | T/C(%) 10 mg/kg ([1]; 10 mg/kg orally) | IC50 [2] [µM]
0.12 | 0.28 | COc1cccc(-c2nc3cc(-c4ccccc4)cnc3[nH]2)c1 [Example 1, 2-(3-methoxyphenyl)-6-phenyl-1H-imidazo[4,5-b]pyridine] | 58* % | 31** % | > 25
0.94 | 0.49 | COc1ccc(Cc2nc3cc(-c4ccco4)cnc3[nH]2)cc1OC [Example 97, 2-(3,4-dimethoxybenzyl)-6-(2-furyl)-1H-imidazo[4,5-b]pyridine] | – | – | > 25
0.22 | 0.25 | Clc1ccc(Cc2nc3cc(-c4ccco4)cnc3[nH]2)cc1 [Example 113, 2-(4-chlorobenzyl)-6-(2-furyl)-1H-imidazo[4,5-b]pyridine] | – | – | ≥ 25
0.23 | 0.19 | COc1cccc(-c2nc3ncc(-c4ccccc4)cc3n2Cc2ccccc2O)c1 [Example 157, 2-[[2-(3-methoxyphenyl)-6-phenyl-1H-imidazo[4,5-b]pyridin-1-yl]methyl]phenol] | – | – | > 25
0.55 | 1.1 | COc1cccc(-c2nc3ncc(-c4ccccc4)cc3n2CC2CC2)c1 [Example 202, 1-(cyclopropylmethyl)-2-(3-methoxyphenyl)-6-phenyl-1H-imidazo[4,5-b]pyridine] | – | – | 21
0.14 | 0.83 | Fc1ccc(/C=C/c2nc3cc(-c4ccco4)ccc3o2)c(F)c1 [Example 219, 2-[(E)-2-(2,4-difluorophenyl)ethenyl]-5-(2-furyl)benzoxazole] | – | – | > 25

From patent US7622479B2, “Bicyclic derivative, its production and use” (Takeda Pharmaceutical Company Limited, priority 2001, dated 2009)
